According to patent publication US4837371A, “Process for concentration of an aqueous solution of amino acid” (Mitsui Toatsu Chemicals, Inc., priority 1986, dated 1989):
Like-named read-outs stand apart in the source and are kept apart here.

Key:
[1] = acid dissociation constant; listed as tryptophane; cited from earlier work
[2] = solubility of L-tryptophan in an ethanol-aqueous solution (Referential Example 1); assay type: physicochemical; settings: pH 5.89, 20° to 75° C.
Description: The pH of the aqueous solution was adjusted to the isoelectric point (5.89), and the aqueous solution was prepared from distilled water and reagent grade ethanol. In FIG. 1, letters a, b, c and d represent the solubility curves of L-tryptophan for the ethanol solution of different compositions shown below. […]
a: Ethanol: 0 Distilled water: 100 (parts by volume) b: Ethanol: 30 Distilled water: 70 c: Ethanol: 50 Distilled water: 50 d: Ethanol: 70 Distilled water: 30

[3] = cited from earlier work; for solubility change with alcohol (in words): alcohol present in aqueous solution; for solubility in water (in words): at the isoelectric point

SMILES | solubility change with alcohol (in words) [3] | solubility in water (in words) [3] | other results
N[C@@H](Cc1c[nH]c2ccccc12)C(=O)O [L-tryptophan] | increase in solubility | sparingly soluble in water at the isoelectric point | pK1 [1]: 2.3; solubility, temperature dependence [2]: increases as the temperature goes up from 20 °C to 75 °C; solubility by adjustment of pH only ([3]; pH not less than 11 or not more than 2): 8 to 10 wt. %; increase of solubility on raising solution temperature ([3]; solution temperature raised to 60° C.): ≤ 2%; solubility in water (in words) ([3]; listed as tryptophane): very low solubility in water
C[C@H](N)C(=O)O [alanine] | decrease in solubility | – | –
N[C@@H](CSSC[C@H](N)C(=O)O)C(=O)O [cystine] | – | sparingly soluble in water at the isoelectric point | –
NCCCC[C@H](N)C(=O)O [lysine] | – | highly soluble in water | –
CSCC[C@H](N)C(=O)O [methionine] | – | sparingly soluble in water at the isoelectric point | –
N[C@@H](Cc1ccccc1)C(=O)O [phenylalanine] | increase in solubility | – | –
